Legend:
FGFR1 = FGFR1 (Homo sapiens, UniProt P11362); experiment: FGFR inhibition assay (33P-ATP radiometric kinase assay), FGFR1; type: biochemical; conditions: 20 μM KKKSPGEYVNIEFG peptide substrate, 10 μM final ATP, 2 hours at room temperature
Method: (§1) The potency of test compounds in inhibiting FGFR1 and FGFR4 was determined. 20 μM of [KKKSPGEYVNIEFG] peptide substrate was added to the reaction buffer (20 mM 4-(2-hydroxyethyl)-1-piperazineethanesulfonic acid (HEPES) (pH 7.5), 10 mM MgCl2, 1 mM egtazic acid (EGTA), 0.02% BRIJ®-35, 0.02 mg/ml bovine serum albumin (BSA), 0.1 mM Na3VO4, 2 mM dithiothreitol (DTT), and 1% DMSO) for FGFR1. 0.2 mg/mL of poly[Glu:Tyr] (4:1) peptide substrate was added to the reaction buffer (20 mM 4-(2-hydroxyethyl)-1-piperazineethanesulfonic acid (HEPES) (pH 7.5), 10 mM MgC12, 1 mM egtazic acid (EGTA), 0.02% BRIJ®-35, 0.02 mg/ml bovine serum albumin (BSA), 0.1 mM Na3VO4, 2 mM dithiothreitol (DTT), and 1% DMSO) for FGFR4. Next, FGFR1 or FGFR4 was added to the substrate solution and gently mixed.
(§2) Test compounds were dissolved in 100% dimethyl sulphoxide (DMSO) and then three-fold serially diluted in DMSO using an epMotion® 5070 robotic pipettor. The diluted test compounds, from 0.00001 M to 5.08053E-10 M, were added to corresponding substrate solutions, and the resulting substrate/compound solutions were incubated for 20 min at room temperature. Radioactive ATP (^33P-ATP) was added to each substrate/compound solution to initiate the kinase activity of FGFR1 or FGFR4 and were incubated for 2 hours at room temperature (10 μM final [ATP]). Reactions were spotted onto P81 ion exchange paper, washed to remove excess radiolabeled ATP and kinase activity determined by quantification of radioactive spots.
(§3) The half maximal inhibitory concentration (IC50) values for FGFR1 and FGFR4 were determined for each compound assayed and are shown in Table 2.

FGFR4 = FGFR4 (Homo sapiens, UniProt P22455); experiment: FGFR inhibition assay (33P-ATP radiometric kinase assay), FGFR4; type: biochemical; conditions: for IC50: 0.2 mg/mL poly[Glu:Tyr] (4:1) substrate, 10 μM final ATP, 2 hours at room temperature; for inhibition of FGFR4 compared with FGFR1 (selectivity): concentration inhibiting FGFR4 versus concentration inhibiting FGFR1, from Table 2 IC50 values
Sequence of FGFR4 (P22455 22-802): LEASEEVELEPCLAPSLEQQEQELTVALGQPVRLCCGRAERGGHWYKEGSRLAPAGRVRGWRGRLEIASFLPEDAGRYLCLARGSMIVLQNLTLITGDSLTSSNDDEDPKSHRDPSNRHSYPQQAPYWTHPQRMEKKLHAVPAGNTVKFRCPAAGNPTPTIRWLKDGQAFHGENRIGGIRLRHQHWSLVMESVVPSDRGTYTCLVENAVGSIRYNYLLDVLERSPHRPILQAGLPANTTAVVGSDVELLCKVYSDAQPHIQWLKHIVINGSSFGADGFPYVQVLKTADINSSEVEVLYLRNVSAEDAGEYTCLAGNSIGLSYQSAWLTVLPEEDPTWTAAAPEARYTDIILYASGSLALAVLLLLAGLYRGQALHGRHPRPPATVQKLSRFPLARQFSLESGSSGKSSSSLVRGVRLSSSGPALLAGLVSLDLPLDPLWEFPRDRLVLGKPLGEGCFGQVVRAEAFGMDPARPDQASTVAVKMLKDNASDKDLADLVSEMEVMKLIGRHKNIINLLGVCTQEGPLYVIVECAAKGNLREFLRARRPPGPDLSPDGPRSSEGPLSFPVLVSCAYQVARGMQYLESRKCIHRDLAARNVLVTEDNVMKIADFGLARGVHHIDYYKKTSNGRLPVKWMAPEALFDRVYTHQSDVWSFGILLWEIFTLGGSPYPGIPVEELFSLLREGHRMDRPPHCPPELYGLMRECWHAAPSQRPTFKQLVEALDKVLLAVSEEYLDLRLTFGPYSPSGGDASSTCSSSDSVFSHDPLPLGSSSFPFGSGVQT
Method: as §1, §2, §3

Sequence of FGFR1 (P11362 22-822): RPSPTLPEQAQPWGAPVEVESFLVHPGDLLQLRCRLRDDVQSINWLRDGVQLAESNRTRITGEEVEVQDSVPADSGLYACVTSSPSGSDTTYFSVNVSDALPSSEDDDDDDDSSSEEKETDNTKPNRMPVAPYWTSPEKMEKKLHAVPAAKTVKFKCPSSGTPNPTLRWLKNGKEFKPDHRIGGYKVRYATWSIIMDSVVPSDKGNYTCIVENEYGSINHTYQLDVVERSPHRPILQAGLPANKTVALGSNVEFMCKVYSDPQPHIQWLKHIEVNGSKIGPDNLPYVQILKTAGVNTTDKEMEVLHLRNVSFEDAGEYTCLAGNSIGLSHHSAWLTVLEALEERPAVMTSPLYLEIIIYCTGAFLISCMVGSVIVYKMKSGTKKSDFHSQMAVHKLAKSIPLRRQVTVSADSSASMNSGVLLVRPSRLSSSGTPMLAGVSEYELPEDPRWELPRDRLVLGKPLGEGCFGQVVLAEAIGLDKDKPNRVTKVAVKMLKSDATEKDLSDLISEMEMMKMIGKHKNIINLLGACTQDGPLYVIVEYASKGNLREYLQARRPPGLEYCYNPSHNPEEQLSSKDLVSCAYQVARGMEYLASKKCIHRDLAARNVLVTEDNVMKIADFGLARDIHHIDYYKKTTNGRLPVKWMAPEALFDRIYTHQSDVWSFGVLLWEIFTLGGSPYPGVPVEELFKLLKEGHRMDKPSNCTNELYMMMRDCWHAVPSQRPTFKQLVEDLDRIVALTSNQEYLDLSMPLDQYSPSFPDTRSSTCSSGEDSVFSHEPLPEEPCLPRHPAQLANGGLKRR

SMILES	IC50 (FGFR1) [nM]	IC50 (FGFR4) [nM]	inhibition of FGFR4 compared with FGFR1 (selectivity) (FGFR4)
COc1cc(OC)c(F)c(C#Cc2cnc(NC(=O)N3CCCc4ccc(C=O)nc43)nc2)c1F [Example 8, N-(5-((2,6-difluoro-3,5-dimethoxyphenyl)ethynyl)pyrimidin-2-yl)-7-formyl-3,4-dihydro-1,8-naphthyridine-1(211)-carboxamide]	330	2.5	
COc1cc(OC)c(F)c(COc2cnc(NC(=O)N3CCCc4cc(CN5CCN(C)CC5=O)c(C=O)nc43)nc2)c1F [Example 3, N-(5-((2,6-difluoro-3,5-dimethoxybenzyl)oxy)pyrimidin-2-yl)-7-formyl-6-((4-methyl-2-oxopiperazin-1-yl)methyl)-3,4-dihydro-1,8-naphthyridine-1(2H)-carboxamide]	140	< 0.5	
COc1cc(OC)c(F)c(/C=C/c2cnc(NC(=O)N3CCCc4ccc(C=O)nc43)nc2)c1F [Example 7, (E)-N-(5-(2,6-difluoro-3,5-dimethoxystyryl)pyrimidin-2-yl)-7-formyl-3,4-dihydro-1,8-naphthyridine-1(2H)-carboxamide]	1000	0.9	
COc1cc(OC)c(F)c(CCc2cnc(NC(=O)N3CCCc4ccc(C=O)nc43)nc2)c1F [Example 6, N-(5-(2,6-difluoro-3,5-dimethoxyphenethyl)pyrimidin-2-yl)-7-formyl-3,4-dihydro-1,8-naphthyridine-1(2H)-carboxamide]	63	1	
COc1cc(OC)c(F)c(COc2cnc(NC(=O)N3CCCc4ccc(C=O)nc43)nc2)c1F [Example 1, N-(5-((2,6-difluoro-3,5-dimethoxybenzyl)oxy)pyrimidin-2-yl)-7-formyl-3,4-dihydro-1,8-naphthyridine-1(2H)-carboxamide]	5600	0.8	dramatically lower concentration
COc1cc(OC)c(F)c(COc2ccc(NC(=O)N3CCCc4ccc(C=O)nc43)nc2)c1F [Example 2, N-(5-((2,6-difluoro-3,5-dimethoxybenzyl)oxy)pyridin-2-yl)-7-formyl-3,4-dihydro-1,8-naphthyridine-1(2H)-carboxamide]	> 10000	5.9	dramatically lower concentration
COc1cc(OC)c(F)c(COc2cnc(NC(=O)N3CCCc4c(C)cc(C=O)nc43)nc2)c1F [Example 5, N-(5-((2,6-difluoro-3,5-dimethoxybenzyl)oxy)pyrimidin-2-yl)-7-formyl-5-methyl-3,4-dihydro-1,8-naphthyridine-1(2H)-carboxamide]	130	1.9	

Source: patent US20220362245A1, “COMPOUNDS FOR INHIBITING FGFR4” (Terns Pharmaceuticals, Inc., priority 2019, published 2022)
